Values of other authors as cited in patent US20180177198A1, “PEDICULICIDE FORMULATION BASED ON EUCALYPTUS GLOBULUS ESSENTIAL OIL” (UNIVERSIDAD DE CONCEPCION, priority 2015, published 2018).

Legend:
[1] = not given; remark: listed apart in the source
pediculosis = settings: in vivo
[2] = test system: Pediculus humanus capitis resistant to permethrin

Compound: c1ccc2[nH]c(-c3cscn3)nc2c1 [Thiabendazole]
- average life (elimination after percutaneous absorption) (in vivo): 70 min

Compound: CC1=CC[C@@H](C(C)(C)O)CC1 [1-α-terpineol]
- pediculicidal effectiveness compared with phenothrin or pyrethrum (lice): as effective as

Compound: Cl[C@H]1[C@H](Cl)[C@@H](Cl)[C@@H](Cl)[C@H](Cl)[C@H]1Cl [Lindane, gamma benzene hexachloride]
- average life in the blood stream (in vivo): 24 h
- absorbed by passage into the blood stream (topical use): Approximately 10%
- ovicidal activity (P. capitis): lacks ovicidal activity
- toxicity range, can be lethal ([1]; adults): 28 g
- dose causing respiratory depression ([1]; children below the age of 4, at 1%): 5 mL

Compound: c1ccc([C@H]2CN3CCSC3=N2)cc1 [Levamisol]
- effectiveness in treatment of pediculosis (pediculosis): 19%

Compound: I-phellandrene
- pediculicidal effectiveness compared with phenothrin or pyrethrum (lice): as effective as

Compound: α-dodelactone
- repellent activity [2]: significant repellent activity

Compound: C=C1C(O)CC2CC1C2(C)C (centres unmarked) [(E)-pinocarveol]
- pediculicidal effectiveness compared with phenothrin or pyrethrum (lice): as effective as

Compound: CC12CCC(CC1)C(C)(C)O2 [1.8-cineol]
- pediculicidal effectiveness compared with phenothrin or pyrethrum (lice): as effective as

Compound: CC1=CC=C(C(C)C)CC1 [α-terpinene]
- pediculicidal effectiveness compared with phenothrin or pyrethrum (lice): as effective as

Compound: CC1=CCC2CC1C2(C)C (stereo not drawn) [(−) α-pinene]
- pediculicidal effectiveness compared with phenothrin or pyrethrum (lice): as effective as
